Article PMC7048316, “Yeast filamentation signaling is connected to a specific substrate translocation mechanism of the Mep2 transceptor” (PLoS Genetics, 2020)

Legend:
Mep2 (ScMep2) = target: T1, Mep2 (ScMep2) (Saccharomyces cerevisiae, UniProt P41948); format: cell-based; details: 3 mM ammonium; pH 5.5; labelled compound
T1 construct: untagged full-length Mep2 in pOO2, cRNA-injected Xenopus oocytes; family adopts a trimeric fold

[1] = substrate: N; assay: cells, lysate or membranes; details: -100 mV (voltage-dependent), pH 5.5, NH4Cl

T1 sequence (P41948 whole entry): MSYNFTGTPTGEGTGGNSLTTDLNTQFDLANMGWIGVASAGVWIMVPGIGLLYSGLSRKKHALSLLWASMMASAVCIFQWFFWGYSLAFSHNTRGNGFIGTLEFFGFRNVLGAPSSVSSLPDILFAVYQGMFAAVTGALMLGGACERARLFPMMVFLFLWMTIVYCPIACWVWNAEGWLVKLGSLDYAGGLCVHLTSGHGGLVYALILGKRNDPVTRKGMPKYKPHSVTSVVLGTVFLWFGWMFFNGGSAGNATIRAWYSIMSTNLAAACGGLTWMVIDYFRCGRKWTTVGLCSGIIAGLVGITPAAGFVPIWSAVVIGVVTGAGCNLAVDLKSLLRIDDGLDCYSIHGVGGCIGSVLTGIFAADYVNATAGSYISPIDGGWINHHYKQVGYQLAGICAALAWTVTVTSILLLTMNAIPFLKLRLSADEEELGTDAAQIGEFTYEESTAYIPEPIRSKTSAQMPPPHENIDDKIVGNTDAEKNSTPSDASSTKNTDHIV

Row | Molecule | 15N-ammonium uptake into Xenopus oocytes, isotope ratio mass spectrometry (Mep2 (ScMep2)) | Km [1] [µM]
1 | N [ammonium] | Mep2 and its Mep2^S457D variant were functional in oocytes, enabling substrate transport | –
2 | Mep1 (ScMep1) (Saccharomyces cerevisiae S288C) (protein) MESRTTGPLTTETYDGPTVAFMILGAALVFFMVPGLGFLYSGLARRKSALALIWVVLMATLVGILQWYFWGYSLAFSKSAPNNKFIGNLDSFGFRNVYGKKFDEDAYPELAYATFQMMFSCVNLSIIAGATAERGRLLPHMVFLFILATIGYCPVTYWIWSPGGWAYQWGVLDWAGGGNIEILSAVSGFVYSWFLGKRNEKLLINFRPHNVSLVTLGTSILWFGWLLFNSASSLSPNLRSVYAFMNTCLSAITGGMTWCLLDYRSEKKWSTVGLCSGIISGLVAATPSSGCITLYGSLIQGIVAGVVCNFATKLKYYAKVDDAMDILAEHGVAGVIGLIFNALFGADWVIGMDGTTEHEGGWVTHNYKQMYKQIAYIAASIGYTAAVTAIICFVLGYIPGMRLRISEEAEEAGMDEDQIGEFAYDYVEVRRDYYLWGVDEDSQRSDVNHRVNNAHLAAERSSSGTNSSSDGNGEMIQSEKILPIHQEDPANR | – | 258
